“Also recorded” adds a separate entry of the source.
Columns and labels:
[1] = biological target: M. pneumoniae binding to sulfatide; assay: Inhibition of M. pneumoniae binding to sulfatide adsorbed on plastic; parameters: species or system Mycoplasma pneumoniae strain M129; settings: for inhibition of binding to sulfatide (in words): sulfatide adsorbed on plastic
Experimental: Virulent M. pneumoniae strain M129, passage 5-15, were grown and metabolically labelled with [^3 H]palmitic acid, 12-17 Ci/mole, as described by Chandler et al. in Infect. Immun. 37: 942, 1982. The organisms were passed four times through a 26 gauge needle and suspended to approximately 10^7 cpm/ml of degassed RPMI 1640 medium containing 1% bovine serum albumin and 25 mM HEPES, pH 7.3.
The binding of M. pneumoniae to purified glycolipids immobilized in microtiter plates was measured as described by Krivan et al. in Proc. Natl. Acad. Sci., op. cit. Purified glycolipids were serially diluted in 25 μl of methanol containing 0.1 μg each of the auxiliary lipids cholesterol and phosphatidylcholine. After the solutions were dried by evaporation, the wells were filled with TBS-BSA, emptied after one hour, rinsed with RPMI-BSA, and incubated with 25 μl of [^3 H]-M. pneumoniae, approximately 10^7 cpm/ml RPMI-BSA. After incubation for two hours at 37° C., unless otherwise stated, the wells were washed five times with saline and bound M. pneumoniae was quantified by scintillation counting in Aquasol. For inhibition studies, various polysaccharides were serially diluted in […] of [^3 H]-M. pneumoniae.
To obtain the results shown in FIG. 4, polysaccharides were serially diluted in 25 μl of RPMI-BSA in microtiter wells previously coated with 1 μg of purified sulfatide. Binding was determined after incubation of two hours at 37° C. with 25 μl of [^3 H]-M. pneumoniae with the indicated concentration of dextran ( .circle. ) or dextran sulfate.

[2] = test system: M. hominus adhesion to human colon adenocarcinoma cells; assay: Inhibition of M. hominus adhesion to cultured human colon adenocarcinoma cells; format: cell-based
[3] = test system: M. hominus binding to sulfatide; assay: Inhibition of M. hominus binding to purified sulfatide; parameters: species or system Mycoplasma hominus
[4] = test system: M. pneumoniae adhesion to coverslips; assay: Inhibition of nonspecific adhesion of M. pneumoniae to coverslips without cells; format: binding, Mycoplasma pneumoniae strain M129; settings: coverslips preincubated in medium containing fetal calf serum
Experimental: (§1) Adhesion of [^3 H]-M. pneumoniae to cells on glass covered slips was measured by a modification of a method previously described by Chandler et al., Infect. Immun., op. cit. WiDr human colon adenocarcinoma, ATCC CCL 218 was grown in Eagle's minimal essential medium with 10% fetal calf serum in a 5% CO2 atmosphere at 37° C. The cells were removed with trypsin and plated on 12 mm round glass coverslips in 24-well tissue culture plates and grown for three days. Control coverslips were preincubated in medium without cells. The coverslips were washed in serum-free medium, then incubated in RPMI-BSA for fifteen minutes. The medium was removed and labelled M. pneumoniae suspended in 0.5 ml of RPMI-BSA were added to each well. The plates were incubated on a rocking table for 60 minutes at 37° C. The coverslips were washed by dipping in saline six times, and the bound radioactive bacteria were determined by scintillation counting. For inhibition studies, the inhibitors were added to M. pneumoniae prior to adding the bacteria to the coverslips.
(§2) Adhesion of labelled M. pneumoniae to WiDr cells on glass cover slips was determined as described previously. For inhibition studies, dextran sulfate and 3'-sialyllactose were dissolved in RPMI-BSA and the pH was adjusted to 7.4 with NaOH. The inhibitors were added to wells containing washed cover slips with attached WiDr cells or blank cover slips preincubated in medium or tris-BSA. Labelled M. pneumoniae were added immediately and incubated with slow rocking for sixty minutes at 37° C. After the coverslips were washed by dipping six times in saline, bound M. pneumoniae were determined by scintillation counting in Aquasol. […] After washing to remove the unbound organisms, the bound mycoplasma were determined by scintillation counting. Binding to uncoated wells was 3% of the applied radioactivity.

[5] = test system: M. pneumoniae adhesion to WiDr cells; assay: Inhibition of M. pneumoniae adhesion to WiDr human colon adenocarcinoma cell monolayers; format: cell-based; settings: WiDr cells
Experimental: as §1
Because virulent strains of M. pneumoniae adhere to mammalian cells, monolayers of WiDr cells were used to determine if dextran sulfate inhibits adhesion of the organism. [^3 H] -labelled M. pneumoniae was incubated with WiDr cell monolayers attached to coverslips in triplicate with an without dextran sulfate, as shown in Table II. […] In each experiment, 10 μg/ml dextran sulfate inhibited more than 1 μg/ml, but 100 μg/ml dextran sulfate caused no further inhibition. Thus, maximal inhibition was obtained with approximately 10 μg/ml of dextran sulfate. Similar results were obtained with MRC5 lung fibroblasts where in three experiments a mean of 47% of M. pneumoniae adhesion was inhibited by dextran sulfate.
as §2
Adhesion of [^3 H]-M. pneumoniae to WiDr cells growing on 13 mm glass cover slips was determined as described above. Inhibition by dextran sulfate or 3'-sialyllactose at the indicated concentrations was calculated relative to control binding determined in RPMI/BSA without inhibitors. The results are presented as percent inhibition (mean±S.D. n=4 with n=8 for determination of control binding without inhibitor).

[6] = test system: M. pneumoniae adhesion to MRC5 lung fibroblasts; assay: Inhibition of M. pneumoniae adhesion to MRC5 lung fibroblasts; format: cell-based, human; settings: mean of three experiments
Experimental: as §1
Because virulent strains of M. pneumoniae adhere to mammalian cells, monolayers of WiDr cells were used to determine if dextran sulfate inhibits adhesion of the organism. [^3 H] -labelled M. pneumoniae was incubated with WiDr cell monolayers attached to coverslips in triplicate with an without dextran sulfate, as shown in Table II. […]

[7] = biological target: M. pneumoniae binding to laminin; assay: Inhibition of M. pneumoniae binding to laminin adsorbed on plastic; parameters: species or system Mycoplasma pneumoniae strain M129; settings: laminin adsorbed on plastic
Experimental: (§3) Glycoproteins dissolved in 0.01 M sodium phosphate buffer, pH 7.4, containing 150 mM NaCl, 1 mM CaCl2, and 0.01% NaN3 were adsorbed onto plastic polyvinylchloride […] microtiter plates by incubation for 16 hours at 4° C. The unbound proteins were removed, and the wells were filled with tris-BSA and incubated for 30 minutes at room temperature. The wells were rinsed with RPMI1640 containing 25 mM HEPES, pH 7.3, and 1% bovine serum albumin. M. pneumoniae strain M129 labelled with [^3 H]-palmitate were dispersed in RPMI-BSA by passing four times through a 26 gauge needle, and 50 μl of the suspension was applied to the wells. After incubation for 60 minutes at 37° C., the wells were washed five times with saline and the labelled M. pneumoniae bound to the proteins were quantified by scintillation counting in Aquasol.
For inhibition studies, sugars in 25 μl of RPMI-BSA were added to wells coated with 10 μg/ml laminin followed by 25 μl of [^3 H]-M. pneumoniae. Binding was determined to both laminin-coated and uncoated wells in triplicate at each inhibitor concentration and in the absence of inhibitor. In some experiments, the adsorbed proteins were pretreated with neuraminidase. After adsorption of the proteins and incubation in tris-BSA, the wells were rinsed three times with 50 mM sodium acetate, pH 5.5, containing 150 mM NaCl, 5 mM CaCl2, 1 mg/ml bovine serum albumin, and 1 mM phenylmethanesulfonyl fluoride. The wells were incubated with 0.05 units/ml neuraminidase in the same buffer or with buffer without enzyme overnight at 20° C. The wells were rinsed three times with tris-BSA, and M. pneumoniae binding was determined as described above.

[8] = test system: erythrocyte adhesion to M. pneumoniae; settings: relative to fetuin; Loomes et al.; cited from earlier work
[9] = test system: monoclonal antibody My-28; assay: Binding of monoclonal antibody My-28 to immobilized proteins after neuraminidase; settings: neuraminidase-treated, adsorbed on plastic
Experimental: Binding of monoclonal antibody My-28 to the immobilized proteins before or after digestion with neuraminidase was determined using a 1:1000 dilution of ascites fluid in tris-BSA. After incubation for two hours at room temperature, the wells were washed three times with tris-BSA. Bound antibody was detected using goat anti-mouse IgM labelled with ^125 I by the Iodogen method.

M. pneumoniae = M. pneumoniae adhesion to immobilized glycoproteins adsorbed on plastic; format: binding, Mycoplasma pneumoniae strain M129; settings: for M. pneumoniae adhesion to immobilized glycoprotein (in words): adsorbed on plastic
Experimental: as §3, with “Aquasol. […]” for “Aquasol.”

Row | Molecule | concentration inhibiting binding to sulfatide by 50% ([1]; 1 μg sulfatide, 37° C., 2 hours) [µg/mL] | inhibition of binding to sulfatide at 1 μg/ml (in words) ([1]; 1 μg/ml) | inhibition of binding to sulfatide (in words) [1] | inhibition of binding to sulfatide (in words) ([1]; listed as Dextran sulfate) | inhibition of M. hominus adhesion (in words) [2] | inhibition of M. hominus binding to sulfatide (in words) [3] | inhibition of non-specific adhesion to coverslips (in words) [4] | concentration giving maximal inhibition of adhesion [5] | inhibition of adhesion to WiDr cells (in words) [5] | inhibition of adhesion to WiDr cells (in words) ([5]; listed as Dextran sulfate) | inhibition of M. pneumoniae adhesion [6] [%] | I.D.50, substrate laminin [7] [µg/mL] | inhibition of binding to laminin (in words) [7] | inhibition of binding to laminin (in words) ([7]; listed as Dextran sulfate) | inhibition of erythrocyte adhesion to M. pneumoniae (in words) [8] | My-28 antibody binding after neuraminidase digestion (in words) [9] | M. pneumoniae adhesion to immobilized glycoprotein (in words) (M. pneumoniae; listed as Glycophorin) | M. pneumoniae adhesion to immobilized glycoprotein (in words) (M. pneumoniae; listed as glycophorin) | Relative binding activity (M. pneumoniae; relative to fetuin = 1.0, from amount for half maximal binding, mean of 2 or 3 experiments)
1 | dextran sulfate | 0.4 | completely abolished binding | potent inhibitor; also recorded: completely inhibits binding | inhibits M. pneumoniae binding to sulfatide | partially inhibits adhesion | completely inhibits binding | not by dextran sulfate | approximately 10 μg/ml | partially inhibit; also recorded: only partially inhibited; also recorded: partially inhibits adhesion; also recorded: partial inhibition | inhibited adhesion in all three experiments | 47 | > 200 | no effect | does not inhibit attachment on laminin |  |  |  |  | 
2 | Human type MM glycophorin: glycoprotein (protein, UniProt P02724 20-150, looked up, MM blood type, glycoprotein) Glycophorin-A: LSTTEVAMHTSTSSSVTKSYISSQTNDTHKRDTYAATPRAHEVSEISVRTVYPPEEETGERVQLAHHFSEPEITLIIFGVMAGVIGTILLISYGIRRLIKKSPSDVKPLPSPDTDVPLSSVEIENPETSDQ |  |  |  |  |  |  |  |  |  |  |  |  |  |  | inhibit erythrocyte adhesion to M. pneumoniae better than fetuin | about ten-fold less | weakly active | neither protein binds M. pneumoniae well | 0.06

Source: patent US5089479A, “Adhesion of Mycoplasma pneumoniae and Mycoplasma hominus to sulfatide” (priority 1988, dated 1992)
